Test results as given in EP4722219A1 (Gan & Lee Pharmaceuticals Co., Ltd., priority 2023, dated 2024).

Assays:
Format in all cases: cell-based
[1] = target: T1, ERα (Homo sapiens, UniProt P03372); assay: ERα degradation in T-47D cells (Western blot); conditions: 4 hours
T1 sequence (P03372 1-595): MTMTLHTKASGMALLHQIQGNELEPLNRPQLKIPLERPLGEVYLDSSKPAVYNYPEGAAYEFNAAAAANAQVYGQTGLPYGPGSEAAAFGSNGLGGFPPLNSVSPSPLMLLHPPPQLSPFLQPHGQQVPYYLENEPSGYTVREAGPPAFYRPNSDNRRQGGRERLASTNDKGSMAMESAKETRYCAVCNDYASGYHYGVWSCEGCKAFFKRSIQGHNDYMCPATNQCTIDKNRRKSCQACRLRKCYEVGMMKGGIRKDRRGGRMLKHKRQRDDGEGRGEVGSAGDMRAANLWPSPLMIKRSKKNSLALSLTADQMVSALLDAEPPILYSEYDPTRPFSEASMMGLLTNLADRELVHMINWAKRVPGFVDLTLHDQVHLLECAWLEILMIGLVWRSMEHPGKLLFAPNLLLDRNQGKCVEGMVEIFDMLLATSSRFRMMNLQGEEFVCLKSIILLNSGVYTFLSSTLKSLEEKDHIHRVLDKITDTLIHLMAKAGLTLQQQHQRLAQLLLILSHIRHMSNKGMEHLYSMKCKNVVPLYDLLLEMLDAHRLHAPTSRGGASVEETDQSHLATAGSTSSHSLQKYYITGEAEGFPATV
Procedure, shortened: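 T-47D cells at 3×10^5 cells/well were exposed to compound (final 0.15-1000 nM, DMSO) for 4 hours at 37°C and then lysed in RIPA. ERα was measured by Western blot (20 µg protein) with infrared imaging. The degradation rate was calculated from ERα/internal-reference grayscale ratios relative to control.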

[2] = system: MCF-7 cells; assay: Inhibition of cell proliferation in MCF-7 cells (CCK-8); conditions: MCF-7 cell proliferation, 6 days treatment
Procedure, shortened: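 MCF-7 cells, 800 per well in DMEM plus 10% FBS, exposed to graded PROTAC concentrations for 6 days at 37 °C, 5% CO2. Viability by CCK-8; IC50 fitted from inhibition rates.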

[3] = system: T-47D cells; assay: Inhibition of cell proliferation in T-47D cells (CCK-8); conditions: 6 days treatment, CCK-8 cell viability
Procedure, shortened: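 T-47D cells (3,000/well) in RPMI-1640 with 10% FBS were exposed to a concentration range of PROTAC compounds for 6 days at 37 °C, 5% CO2. Viability read by CCK-8; IC50 fitted from inhibition rate.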

[4] = target: T1, ERα; assay: ERα degradation in MCF-7 cells (Western blot); parameters: host or cells: MCF-7; conditions: 4 hours
Procedure, shortened: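 MCF-7 cells treated 4 h at 37 °C with compound at 0.15–1000 nM final. ERα in lysates measured by Western blot (20 µg protein), normalized to an internal reference protein; degradation rate calculated against control.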

| Structure (SMILES) | Degradation rate of ERα in T-47D cells (%) ([1]; 1nM) | Degradation rate of ERα in T-47D cells (%) ([1]; 10nM) | IC50 ([2]; Homo sapiens, MCF7, 144 h) [nM] | IC50 ([3]; Homo sapiens, T47D, 144 h) [nM] | Degradation rate of ERα in MCF-7 cells (%) ([4]; 1nM) | Degradation rate of ERα in MCF-7 cells (%) ([4]; 10nM) | IC50 [2] [nM] | IC50 [3] [nM] |
| --- | --- | --- | --- | --- | --- | --- | --- | --- |
| Cn1c(=O)n(C2CCC(=O)NC2=O)c2ccc3c(c21)OCC31CCN(C2CCC3(CC2)CCN(c2ccc([C@@H]4c5ccc(O)cc5CC[C@@H]4c4ccccc4)cc2)CC3)CC1 (stereo partly drawn) [ER-P-16, 3-(1'-(3-(4-((1R,2S)-6-hydroxy-2-phenyl-1,2,3,4-tetrahydronaphthalen-1-yl)phenyl)-3-azaspiro[5.5]undecan-9-yl)-1-methyl-2-oxo-1,2-dihydro-3H,7H-spiro[benzofuro[6,7-d]imidazole-6,4'-piperidin]-3-yl)piperidine-2,6-dione] | 69 | 73 | 885 | 0.62 | 43 | 62 |  |  |
| CN(C(=O)CN1CCC2(CC1)COc1c2ccc2c1n(C)c(=O)n2C1CCC(=O)NC1=O)C1CCC2(CC1)CN(c1ccc([C@@H]3c4ccc(O)cc4CC[C@@H]3c3ccccc3)cc1)C2 (stereo partly drawn) [ER-P-64, 2-(3-(2,6-dioxopiperidin-3-yl)-1-methyl-2-oxo-2,3-dihydro-1H,7H-spiro[benzofuro[6,7-d]imidazole-6,4'-piperidin]-1'-yl)-N-(2-(4-((1R,2S)-6-hydroxy-2-phenyl-1,2,3,4-tetrahydronaphthalen-1-yl)phenyl)-2-azaspiro[3.5]nonan-7-yl)-N-methylacetamide] | 56 | 80 | 231 | 1.5 | 46 | 57 |  |  |
| Cn1c(=O)n(C2CCC(=O)NC2=O)c2cc3c(cc21)C1(CCN(C2CC4(CCN(c5ccc([C@@H]6c7ccc(O)cc7CC[C@@H]6c6ccccc6)cc5)CC4)C2)CC1)CO3 (stereo partly drawn) [ER-P-12, 3-(1'-(7-(4-((1R,2S)-6-hydroxy-2-phenyl-1,2,3,4-tetrahydronaphthalen-1-yl)phenyl)-7-azaspiro[3.5]nonan-2-yl)-1-methyl-2-oxo-1,2-dihydro-3H,6H-spiro[benzofuro[5,6-d]imidazole-7,4'-piperidin]-3-yl)piperidine-2,6-dione] | 34 | 38 | 25.2 | 2.4 | -9 | -11 |  |  |
| Cn1c(=O)n(C2CCC(=O)NC2=O)c2cc3c(cc21)C1(CCN(CC2CCC4(CC2)CCN(c2ccc([C@@H]5c6ccc(O)cc6CC[C@@H]5c5ccccc5)cc2)CC4)CC1)CO3 (stereo partly drawn) [ER-P-62] | 13 | 52 | 183 | 2.64 | 14 | 39 |  |  |
| CN(c1ccc2c(c1)COC[C@H]1CN(CC3CCC(OC4CCN(c5ccc([C@@H]6c7ccc(O)cc7CC[C@@H]6c6ccccc6)cc5)CC4)CC3)CCN21)C1CCC(=O)NC1=O (stereo partly drawn) [ER-P-53, 3-(((R)-3-((4-((1-(4-((1R,2S)-6-hydroxy-2-phenyl-1,2,3,4-tetrahydronaphthalen-1-yl)phenyl)piperidin-4-yl)oxy)cyclohexyl)methyl)-1,2,3,4,4a,5-hexahydro-7H-benzo[e]pyrazino[2,1-c][1,4]oxazepin-9-yl)(methyl)amino)piperidine-2,6-dione] | 18 | 33 |  |  | 10 | 21 | 1310 | 252 |
| CN(c1ccc2c(c1)OCC21CCN(C[C@H]2CC[C@@H](OC3CCN(c4ccc([C@@H]5c6ccc(O)cc6CC[C@@H]5c5ccccc5)cc4)CC3)CC2)CC1)C1CCC(=O)NC1=O (stereo partly drawn) [ER-P-32, 3-((1'-(((1S,4s)-4-((1-(4-((1R,2S)-6-hydroxy-2-phenyl-1,2,3,4-tetrahydronaphthalen-1-yl)phenyl)piperidin-4-yl)oxy)cyclohexyl)methyl)-2H-spiro[benzofuran-3,4'-piperidin]-6-yl)(methyl)amino)piperidine-2,6-dione] | -2 | 15 | 705 | 19.5 | 12 | 13 |  |  |
| C[C@@H]1Cc2cc(O)ccc2C(c2c(F)cc(N3CCC4(CC3)CC(N3CC5(CCC6(CC5)COc5c6ccc6c5CN(C5CCC(=O)NC5=O)C6=O)C3)C4)cc2F)N1CC(F)F (stereo partly drawn) [ER-P-28, 3-(1-(7-(4-((3R)-2-(2,2-difluoroethyl)-6-hydroxy-3-methyl-1,2,3,4-tetrahydroisoquinolin-1-yl)-3,5-difluorophenyl)-7-azaspiro[3.5]nonan-2-yl)-6"-oxo-6",8"-dihydro-2"H,7"H-dispiro[azetidine-3,1'-cyclohexane-4',3"-furo[2,3-e]isoindol]-7"-yl)piperidine-2,6-dione] | 41 | 59 | < 0.256 | 1.56 | 38 | 63 |  |  |
| O=C1CC[C@H](NC(=O)c2ccc3c(c2F)OCC32CCN(C3CCC4(CC3)CN(c3ccc([C@@H]5c6ccc(O)cc6CC[C@@H]5c5ccccc5)cc3)C4)CC2)C(=O)N1 [ER-P-38, N-((S)-2,6-dioxopiperidin-3-yl)-7-fluoro-1'-(2-(4-((1R,2S)-6-hydroxy-2-phenyl-1,2,3,4-tetrahydronaphthalen-1-yl)phenyl)-2-azaspiro[3.5]nonan-7-yl)-2H-spiro[benzofuran-3,4'-piperidine]-6-carboxamide] | 1 | 3 | 505 | 18.6 | 12 | -14 |  |  |
| O=C1CCC(N2Cc3c(ccc4c3OCC43CCC4(CCN(C5CCC6(CC5)CCN(c5ccc([C@@H]7c8ccc(O)cc8CC[C@@H]7c7ccccc7)cc5)CC6)CC4)CC3)C2=O)C(=O)N1 (stereo partly drawn) [ER-P-57] | 12 | 68 | 12.7 | 3.19 | 3 | 62 |  |  |
| CN(C(=O)CN1CCC2(CC1)CCC1(CC2)COc2c1ccc1c2CN(C2CCC(=O)NC2=O)C1=O)C1CCC2(CC1)CN(c1ccc([C@@H]3c4ccc(O)cc4CC[C@@H]3c3ccccc3)cc1)C2 (stereo partly drawn) [ER-P-20, 2-(7-(2,6-dioxohesperidin-3-yl)-6-oxo-7,8-dihydro-2H,6H-dipyrazole[furo[2,3-e]isoindole-3,1'-cyclohexane-4',4'-piperidin]-1"-yl)-N-(2-(4-((1R,2S)-6-hydroxy-2-phenyl-1,2,3,4-tetrahydronaphthalen-1-yl)phenyl)-2-azaspiro[3.5]nonan-7-yl)-N-methylacetamide] | 38 | 66 | 2230 | 5.02 | 5 | 30 |  |  |
